The source of these data is patent publication US20040097549A1, “Method and composition for administering a cyclooxygenase-2 inhibitor” (Pharmacia Corporation, priority 1999, published 2004).

For series [1] the following is noted: Cynomolgus monkeys, orally for six weeks; cited from earlier work.
Series [2] in a line: Treatment of a dog with arthritic-related symptoms (Example 7). Format: in vivo. The note with it: 15-year old dog about 25 kg, commercially-available drug therapy for nine months; some worsening noted. The procedure: A 15-year old, black Labrador Retriever, mixed-heritage, neutered-male dog weighing about 25 kg has a history of arthritic-related symptoms that makes it difficult, or impossible, for the dog to stand, walk, or ascend or descend stairs. […] Over a subsequent period of six months, this dog is treated with a cyclooxygenase-2 inhibitor in the manner described as follows.
About 125 mg of a 95% pure, selective cyclooxygenase-2 inhibitor in white crystalline powder form is dispersed in a teaspoon of olive oil which is then spread over the surface of a single slice of commercially-available wheat bread. The bread is cut into quarters, all of which is then fed to the dog. The dog is observed to consume the entire slice of bread. Within ten (10) days of initial feeding of this dog, as described above, there is observed noticeable improvement in alleviation of arthritic-related symptoms. For example, the dog is observed to walk easily, descend stairs, […], and be less lethargic in day-to-day activities.

`CN1C(C(=O)Nc2ccccn2)=C(O)c2sc(Cl)cc2S1(=O)=O` [lomoxicam]: the Toxicity entry in series [1] is recorded as “monkeys: 1-2 mg/kg/day”.

In the case of `CC(C(=O)O)c1ccc2c(c1)[nH]c1ccc(Cl)cc12` (centres unmarked) [Rimadyl carprofan], in series [2], the “improvement in the dog's arthritic-related symptoms” value was “without improvement”.
